Data as given in patent US20120059009A1, “ANTI-TUMOR AGENT CONTAINING TEGAFUR-GIMERACIL-OTERACIL POTASSIUM COMBINATION DRUG AND OXALIPLATIN” (TAIHO PHARMACEUTICAL CO., LTD., priority 2009, published 2012).
Read-outs that look alike come from different tables or passages of the source.

Key:
[1] = system: human colorectal cancer COL-1; assay: Anti-tumor effect (IR) in human colorectal cancer COL-1 xenograft model; type: in vivo, male nude mice (BALB/cA-nu); settings: in the combination S-1 7 mg/kg, l-OHP 4.2 mg/kg
Protocol: A fragment (about 2 mm diameter) of human colorectal cancer COL-1 was transplanted into the right axilla of each of male nude mice (BALB/cA-nu, 4-week old, purchased from CLEA Japan, Inc.), and the tumor volume ((longer diameter)×(shorter diameter)^2/2) of the mouse was calculated. The mice were allocatedinto groups so that the average tumor volumes of the groups were adjusted to about 220 mm^3 (8 mice/group). Drug administration was started on the next day after the day of grouping (Day 0). […] TSU-68 was orally administered once a day at a dose of 200 or 400 mg/kg/day from Day 1 to Day 28. A group to which no drug was administered was set as a control group. During drug administration, the tumor volume of each mouse was measured every 3 to 4 days, and the relative tumor volume (RTV) and the anti-tumor effect (IR (%)) of each group were calculated by the formulas below. The statistical significance of difference of the anti-tumor effect between drug-administration group and control group was analyzed by the Student's t-test (both sides) using the average RTV value of these groups. A P value of p<0.05 was considered statistically significant. Furthermore, the advantage in anti-tumor effect (augmentation effect) of the S-1/l-OHP/TSU-68 combination group, with respect to each of the control group, the S-1/l-OHP combination group and the TSU-68 single administration group, was statistically analyzed through the IUT test. […] Relative tumor volume (RTV)=(Tumor volume on Day N)/(Tumor volume on Day 1) [F1] Anti-tumor effect (IR(%))=[1−(RTV of drug-administration group)/(RTV of control group)]×100

[2] = system: metastatic colorectal cancer patients; type: in vivo, human
Protocol: The safety of the case where metastatic colorectal cancer patients (9 cases) were subjected to l-OHP and S-1 combination therapy with administration of TSU-68 was examined. In this study, one cycle of the treatment was consisted of 21 days. To each patient, l-OHP was intravenously administered at a dose of 130 mg/m^2 (per body surface area) on Day 1, and S-1 was orally administered, twice a day after meal, at a daily dose (in terms of tegafur) of 70 mg/m^2 (per body surface area) from Day 1 to Day 14. The 7 days from Day 15 to Day 21 were placed as a rest period. TSU-68 was orally administered every day, twice a day after meal, at a daily dose of 400 mg to 800 mg.
The above study was carried out in order to determine the recommended dose (RD) of TSU-68 in the case where l-OHP and S-1 combination therapy, whose efficacy to colorectal cancer had been established, may be carried out in combination with administration of TSU-68, without causing adverse side effects.
The safety was evaluated according to NCI-CTCAE (3rd edition, the National Cancer Institute's Common Terminology Criteria for Adverse Events version 3.0).

Q: Which “IR (%) Day 15” value ([1]; TSU-68 200 mg/kg/day p.o.) does the source give for `Cc1[nH]c(/C=C2\C(=O)Nc3ccccc32)c(C)c1CCC(=O)O` [TSU-68, 3-[2,4-dimethyl-5-[[(Z)-2,3-dihydro-2-oxo-1H-indol-3-ylidene]methyl]-1H-pyrrol-3-yl]propanoic acid] here?
A: Its value is 47.5%.

Q: And the “IR (%) Day 15” value ([1]; TSU-68 400 mg/kg/day p.o.)?
A: Its value is 51.4%.

Q: What about the “IR (%) Day 22” value ([1]; TSU-68 200 mg/kg/day p.o.) of the same compound?
A: Its value is 47.8%.

Q: And the “IR (%) Day 22” value ([1]; TSU-68 400 mg/kg/day p.o.)?
A: Its value is 46.3%.

Q: And the “IR (%) Day 29” value ([1]; TSU-68 200 mg/kg/day p.o.)?
A: The value was 49.2%.

Q: What about the “IR (%) Day 29” value ([1]; TSU-68 400 mg/kg/day p.o.) of the same compound?
A: The value was 52.8%.

Q: What about the “anti-tumor effect, 400 mg group versus 800 mg group” value ([2]; TSU-68 400 or 800 mg daily with l-OHP and S-1) of the same compound?
A: Its value is “almost equivalent”.

Q: And the “dose-limiting toxicity (DLT)” value ([2]; human, in vivo, 21 days)?
A: Its value is “dose-limiting toxicity (DLT) including singultus and skin response in the hands and feet (Grade 3) or neutropenia (Grade 2) was observed”.

Q: And the “recommended dose (RD) of TSU-68 in the combination therapy” value ([2]; human, in vivo, 21 days)?
A: Its value is 400 mg.

Q: And the “dose-limiting toxicity (DLT)” value ([2]; in vivo)?
A: The value was “no DLT was observed”.
